One may read the IC50 as the midpoint of a concentration-inhibition curve. A low value points to higher potency.

21 compounds from patent EP4782445A1, “CDK KINASE INHIBITOR AND USE THEREOF” (Abbisko Therapeutics Co., Ltd., priority 2023, dated 2025) can be followed below.

The structures appear in SMILES notation.

In one assay the target is T1, CDK6/cyclin D3 (Homo sapiens, UniProt Q00534).
T1 construct: purchased Carna
The assay is described as follows: In vitro biochemical kinase activity assay for CDK6/cyclin D3 (HTRF). As for the experimental part:
III. In Vitro Biochemical Kinase Activity Assay for CDK6/Cyclin D3
The inhibitory effects of the compounds of the present invention on CDK6/cyclin D3 kinase activity were determined using an HTRF assay. The experimental process was as follows: 1. The kinase reaction was carried out in a 384-well plate. 0.02 nM CDK6/cyclin D3 (Carna), 1 mM (or 100 µM) ATP, and 0.3 µM biotin-labeled substrate protein Rb-biotin (Cisbio) were incubated at 30°C for 60 min in a buffer system composed of 5 mM MgCl2, 1 mM DTT, and basal kinase buffer (Cisbio). 2. The detection solution (Cisbio, containing reagents that specifically recognize phosphorylated Rb and Rb-biotin proteins, respectively) was added. The plate was then sealed with a film (to protect from light and volatilization) and incubated at 25°C for 60 min. 3. The plate was transferred to an Envision plate reader to detect FRET signals. (The 665/615 ratio was calculated by reading the emission at 665 nm and 615 nM, respectively.) 4. The IC50 values were determined by analyzing the inhibition at varying compound concentrations using Model 205 in the XLfit software.
For orientation: TR-FRET usually uses a lanthanide donor and a delayed reading to cut background.

The next assay has as its target T2, CDK4/cyclin D3 (Homo sapiens, UniProt P11802).
T2 construct: purchased Carna
The assay can be described thus: In vitro biochemical kinase activity assay for CDK4/cyclin D3 (HTRF). The protocol:
II. In Vitro Biochemical Kinase Activity Assay for CDK4/Cyclin D3
The inhibitory effects of the compounds of the present invention on CDK4/cyclin D3 kinase activity were determined using an HTRF assay. The experimental process was as follows: • 1. The kinase reaction was carried out in a 384-well plate. 4.9 nM CDK4/cyclin D3 (Carna), 1 mM (or 80 µM) ATP, and 0.3 µM biotin-labeled substrate protein Rb-biotin (Cisbio) were incubated at 30°C for 90 min in a buffer system composed of 50 mM MgCl2, 1 mM DTT, and basal kinase buffer (Cisbio). • 2. The detection solution (Cisbio, containing reagents that specifically recognize phosphorylated Rb and Rb-biotin proteins, respectively) was added. The plate was then sealed with a film (to protect from light and volatilization) and incubated at 25°C for 60 min. • 3. The plate was transferred to an Envision plate reader to detect FRET signals. (The 665/615 ratio was calculated by reading the emission at 665 nm and 615 nM, respectively.) • 4. The IC50 values were determined by analyzing the inhibition at varying compound concentrations using Model 205 in the XLfit software.

Setting [1] is: data marked with *: 1 mM ATP in Step 1.
The mark [2] stands for this setting: unmarked data: 100 µM ATP in Step 1.
Where [3] appears, read: unmarked data: 80 µM ATP in Step 1.

T1 sequence (Q00534 whole entry): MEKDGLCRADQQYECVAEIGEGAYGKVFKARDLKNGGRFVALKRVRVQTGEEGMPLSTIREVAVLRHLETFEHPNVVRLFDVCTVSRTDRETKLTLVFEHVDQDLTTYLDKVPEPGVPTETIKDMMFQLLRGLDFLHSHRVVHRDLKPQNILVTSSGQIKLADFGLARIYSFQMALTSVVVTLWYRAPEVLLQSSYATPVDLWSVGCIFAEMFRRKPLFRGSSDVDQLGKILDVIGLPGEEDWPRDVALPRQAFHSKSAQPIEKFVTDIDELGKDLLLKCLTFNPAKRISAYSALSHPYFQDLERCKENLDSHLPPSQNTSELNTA
T1 sequence (P30281 whole entry partner): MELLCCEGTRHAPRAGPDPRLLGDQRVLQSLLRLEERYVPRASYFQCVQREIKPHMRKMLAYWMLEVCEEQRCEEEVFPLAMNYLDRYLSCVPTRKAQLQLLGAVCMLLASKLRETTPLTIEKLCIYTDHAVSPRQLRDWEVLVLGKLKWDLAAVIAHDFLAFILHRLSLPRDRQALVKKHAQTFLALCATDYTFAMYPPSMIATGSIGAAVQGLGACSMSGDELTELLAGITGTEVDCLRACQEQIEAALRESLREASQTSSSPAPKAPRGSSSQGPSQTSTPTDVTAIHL
T2 sequence (P11802 whole entry): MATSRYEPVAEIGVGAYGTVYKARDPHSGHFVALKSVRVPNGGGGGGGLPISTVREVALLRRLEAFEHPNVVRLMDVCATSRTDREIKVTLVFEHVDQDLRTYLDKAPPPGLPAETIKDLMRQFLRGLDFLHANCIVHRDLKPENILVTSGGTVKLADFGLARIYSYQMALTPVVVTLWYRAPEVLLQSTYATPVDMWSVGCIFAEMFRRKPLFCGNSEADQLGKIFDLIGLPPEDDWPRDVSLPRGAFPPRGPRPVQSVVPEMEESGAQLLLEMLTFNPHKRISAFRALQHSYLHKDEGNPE
T2 sequence (P30281 whole entry partner): as the sequence (P30281 whole entry partner) above

As to `CC(C)n1c(C#Cc2nc(N[C@@H]3CCOC[C@H]3O)ncc2Cl)cnc1CN1CC(C)(O)C1` [Example 38, 1-((5-((5-chloro-2-(((3 S,4R)-3-hydroxytetrahydro-2H-pyran-4-yl)amino)pyrimidin-4-yl)ethynyl)-1-isopropyl-1H-imidazol-2-yl)methyl)-3-methylazetidin-3-ol], the half-maximal inhibitory concentration (IC50) on CDK6/cyclin D3 (setting [1]) came out at 2120 nM; at CDK4/cyclin D3 (setting [1]), 172 nM.

Consider `CC(C)n1c(C#Cc2nc(N[C@H]3CC[C@H](NS(C)(=O)=O)CC3)ncc2Cl)cnc1C(C)(C)O` [Example 99, N-((1R,4R)-4-((5-chloro-4-((2-(2-hydroxypropan-2-yl)-1-isopropyl-1H-imidazol-5-yl)ethynyl)pyrimidin-2-yl)amino)cyclohexyl)methanesulfonamide], for which the figures for the concentration for half-maximal inhibition (IC50) on CDK6/cyclin D3 (setting [1]) and against CDK4/cyclin D3 (setting [1]) were 190 nM and 28.1 nM, respectively.

In the case of `CC(C)n1c(C#Cc2nc(Nc3ccc(N4CCN(C)CC4)cn3)ncc2Cl)cnc1C(C)(C)O` [Example 66, 2-(5-((5-chloro-2-((5-(4-methylpiperazin-1-yl)pyridin-2-yl)amino)pyrimidin-4-yl)ethynyl)-1-isopropyl-1H-imidazol-2-yl)propan-2-ol], the IC50 was found to be 1.9 nM on CDK6/cyclin D3 (setting [2]) and 1.03 nM against CDK4/cyclin D3 (setting [3]).

As for `CC(C)c1c(C#Cc2nc(N[C@@H]3CCN(S(C)(=O)=O)C[C@H]3O)ncc2Cl)cnn1C` [Example 33, (3R,4R)-4-((5-chloro-4-((5-isopropyl-1-methyl-1H-pyrazol-4-yl)ethynyl)pyrimidin-2-yl)amino)-1-(methanesulfonyl)piperidin-3-ol], the figures for the concentration for half-maximal inhibition (IC50) against CDK6/cyclin D3 (setting [1]) and at CDK4/cyclin D3 (setting [1]) were 10.3 nM and 1.35 nM, respectively.

As for `CCN1CC2(C1)CN(c1ccc(Nc3ncc(Cl)c(C#Cc4cnc(C(C)(C)O)n4C(C)C)n3)nc1)C2` [Example 71, 2-(5-((5-chloro-2-((5-(6-ethyl-2,6-diazaspiro[3.3]heptan-2-yl)pyridin-2-yl)amino)pyrimidin-4-yl)ethynyl)-1-isopropyl-1H-imidazol-2-yl)propan-2-ol], the IC50 amounted to 6.31 nM on CDK6/cyclin D3 (setting [1]) and 2.52 nM at CDK4/cyclin D3 (setting [1]).

`CCN1CCN(C(=O)c2ccc(Nc3ncc(Cl)c(C#Cc4cnc(C(C)(C)O)n4C(C)C)n3)nc2)CC1` [Example 67, (6-((5-chloro-4-((2-(2-hydroxypropan-2-yl)-1-isopropyl-1H-imidazol-5-yl)ethynyl)pyrimidin-2-yl)amino)pyridin-3-yl)(4-ethylpiperazin-1-yl)methanone]: the values for the IC50 against CDK6/cyclin D3 (setting [2]) and at CDK4/cyclin D3 (setting [3]) were 5.88 nM and 1.17 nM, respectively.

Regarding `Cn1ncc(C#Cc2nc(N[C@@H]3CCOC[C@H]3O)ncc2Cl)c1C(C)(C)C` [Example 127, (3 S,4R)-4-((4-((5-(tert-butyl)-1-methyl-1H-pyrazol-4-yl)ethynyl)-5-chloropyrimidin-2-yl)amino)tetrahydro-2H-pyran-3-ol], the results for the IC50 on CDK6/cyclin D3 (setting [1]) and on CDK4/cyclin D3 (setting [1]) were 455 nM and 137 nM, respectively.

Consider `CC(C)n1c(C#Cc2nc(Nc3ccc(N4CC5(CN(CC(F)F)C5)C4)cn3)ncc2Cl)cnc1CN1CCC[C@H](O)C1` [Example 116, (S)-1-((5-((5-chloro-2-((5-(6-(2,2-difluoroethyl)-2,6-diazaspiro[3.3]heptan-2-yl)pyridin-2-yl)amino)pyrimidin-4-yl)ethynyl)-1-isopropyl-1H-imidazol-2-yl)methyl)piperidin-3-ol], for which the concentration for half-maximal inhibition (IC50) came out at 87.8 nM against CDK6/cyclin D3 (setting [1]) and 5.7 nM at CDK4/cyclin D3 (setting [1]).

Regarding `CC(C)n1c(C#Cc2nc(N[C@@H]3CCOC[C@H]3C#N)ncc2Cl)cnc1C(C)(C)O` [Example 101, (3R,4R)-4-((5-chloro-4-((2-(2-hydroxypropan-2-yl)-1-isopropyl-1H-imidazol-5-yl)ethynyl)pyrimidin-2-yl)amino)tetrahydro-2H-pyran-3-carbonitrile], the values for the IC50 against CDK6/cyclin D3 (setting [1]) and against CDK4/cyclin D3 (setting [1]) were 4770 nM and 786 nM, respectively.

With `CCN1CCC(c2ccc(Nc3ncc(Cl)c(C#Cc4cnc(C(C)(C)O)n4C(C)C)n3)nc2)CC1` [Example 76, 2-(5-((5-chloro-2-((5-(1-ethylpiperidin-4-yl)pyridin-2-yl)amino)pyrimidin-4-yl)ethynyl)-1-isopropyl-1H-imidazol-2-yl)propan-2-ol], the IC50 against CDK6/cyclin D3 (setting [1]) is 6.53 nM; against CDK4/cyclin D3 (setting [1]), 2.9 nM.

Take `CC(C)n1c(C#Cc2nc(N[C@@H]3CCOC[C@H]3O)ncc2Cl)cnc1CN1CCC[C@@H](O)C1` [Example 78, (R)-1-((5-((5-chloro-2-(((3 S,4R)-3-hydroxytetrahydro-2H-pyran-4-yl)amino)pyrimidin-4-yl)ethynyl)-1-isopropyl-1H-imidazol-2-yl)methyl)piperidin-3-ol]: the concentration for half-maximal inhibition (IC50) is 393 nM against CDK6/cyclin D3 (setting [1]) and 75.5 nM against CDK4/cyclin D3 (setting [1]).

In the case of `CC(C)n1c(C#Cc2nc(N[C@@H]3CCOC[C@H]3O)ncc2Cl)cnc1CN1CCC[C@@H](C#N)C1` [Example 98, (R)-1-((5-((5-chloro-2-(((3 S,4R)-3-hydroxytetrahydro-2H-pyran-4-yl)amino)pyrimidin-4-yl)ethynyl)-1-isopropyl-1H-imidazol-2-yl)methyl)piperidin-3-carbonitrile], the half-inhibitory concentration (IC50) on CDK6/cyclin D3 (setting [1]) worked out at 198 nM; on CDK4/cyclin D3 (setting [1]) it was 8.08 nM.

`CCN1CC2(C1)CN(c1ccc(Nc3ncc(F)c(C#Cc4cnn(C)c4C(C)(C)O)n3)nc1)C2` [Example 83, 2-(4-((2-((5-(6-ethyl-2,6-diazaspiro[3.3]heptan-2-yl)pyridin-2-yl)amino)-5-fluoropyrimidin-4-yl)ethynyl)-1-methyl-1H-pyrazol-5-yl)propan-2-ol] had an IC50 against CDK4/cyclin D3 (setting [1]) of 2860 nM.

In the case of `CC(C)n1c(C#Cc2nc(N[C@@H]3CCOC[C@H]3O)ncc2Cl)cnc1CN1[C@@H](C)COC[C@@H]1C` [Example 74, (3 S,4R)-4-((5-chloro-4-((2-(((3 S,5 S)-3,5-dimethylmorpholino)methyl)-1-isopropyl-1H-imidazol-5-yl)ethynyl)pyrimidin-2-yl)amino)tetrahydro-2H-pyran-3-ol], the 50% inhibitory concentration (IC50) against CDK6/cyclin D3 (setting [1]) was 341 nM; on CDK4/cyclin D3 (setting [1]), 20.1 nM.

Regarding `CC(C)n1c(C#Cc2nc(N[C@@H]3CCOC[C@H]3O)ncc2Cl)cnc1C(C)(O)C1CC1` (stereo partly drawn) [Example 125, (3 S,4R)-4-((5-chloro-4-((2-(1-cyclopropyl-1-hydroxyethyl)-1-isopropyl-1H-imidazol-5-yl)ethynyl)pyrimidin-2-yl)amino)tetrahydro-2H-pyran-3-ol], the IC50 is 65.4 nM at CDK6/cyclin D3 (setting [1]) and 11.6 nM on CDK4/cyclin D3 (setting [1]).

As for `CC(C)c1c(C#Cc2nc(N[C@@H]3CCOC[C@H]3O)ncc2Cl)cnn1CC(C)(C)O` [Example 64, (3 S,4R)-4-((5-chloro-4-((1-(2-hydroxy-2-methylpropyl)-5-isopropyl-1H-pyrazol-4-yl)ethynyl)pyrimidin-2-yl)amino)tetrahydro-2H-pyran-3-ol], the 50% inhibitory concentration (IC50) on CDK6/cyclin D3 (setting [2]) came out at 132 nM; against CDK4/cyclin D3 (setting [3]), 13.2 nM.

For `CC(C)c1nn(C)cc1C#Cc1nc(N[C@@H]2CCOC[C@H]2O)ncc1Cl` [Example 54, (3 S,4R)-4-((5-chloro-4-((3-isopropyl-1-methyl-1H-pyrazol-4-yl)ethynyl)pyrimidin-2-yl)amino)tetrahydro-2H-pyran-3-ol], the 50% inhibitory concentration (IC50) at CDK6/cyclin D3 (setting [2]) amounted to 164 nM; on CDK4/cyclin D3 (setting [3]), 59 nM.

Consider `CC(C)n1c(C#Cc2nc(N[C@@H]3CCN(S(C)(=O)=O)C[C@H]3O)ncc2Cl)cnc1CN1CCC[C@H](O)C1` [Example 129, (3R,4R)-4-((5-chloro-4-((2-(((S)-3-hydroxypiperidin-1-yl)methyl)-1-isopropyl-1H-imidazol-5-yl)ethynyl)pyrimidin-2-yl)amino)-1-(methanesulfonyl)piperidin-3-ol], for which the IC50 turned out to be 21 nM against CDK6/cyclin D3 (setting [1]) and 1.48 nM on CDK4/cyclin D3 (setting [1]).

With `COC1COCC[C@H]1Nc1ncc(Cl)c(C#Cc2cnc(C(C)(C)O)n2C(C)C)n1` (stereo partly drawn) [Example 92, 2-(5-((5-chloro-2-(((4R)-3-methoxytetrahydro-2H-pyran-4-yl)amino)pyrimidin-4-yl)ethynyl)-1-isopropyl-1H-imidazol-2-yl)propan-2-ol], the half-inhibitory concentration (IC50) against CDK6/cyclin D3 (setting [1]) came to 520 nM; at CDK4/cyclin D3 (setting [1]), 99.7 nM.

In the case of `CC(C)n1c(C#Cc2nc(N[C@@H]3CCOC[C@H]3O)ncc2F)cnc1CN1CCC[C@H](O)C1` [Example 102, (S)-1-((5-((5-fluoro-2-(((3 S,4R)-3-hydroxytetrahydro-2H-pyran-4-yl)amino)pyrimidin-4-yl)ethynyl)-1-isopropyl-1H-imidazol-2-yl)methyl)piperidin-3-ol], the IC50 at CDK4/cyclin D3 (setting [1]) worked out at 1040 nM.

In the case of `CC(C)n1c(C#Cc2nc(N[C@@H]3CCC[C@@H](C(=O)N(C)C)C3)ncc2Cl)cnc1C(C)(C)O` [Example 96, (1R,3R)-3-((5-chloro-4-((2-(2-hydroxypropan-2-yl)-1-isopropyl-1H-imidazol-5-yl)ethynyl)pyrimidin-2-yl)amino)-N,N-dimethylcyclohexane-1-carboxamide], the midpoint of inhibition at CDK4/cyclin D3 (setting [1]), the IC50, lay at 3290 nM.
